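GI50 = concentration required for 50% inhibition of growth. TGI denotes the concentration required for complete inhibition of growth.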
Tests used:
Experiment in all cases: NCI-60 cell line screen, 384-well format
786-0 renal = tested on: 786-0 renal
A498 renal = tested on: A498 renal
A549 NSCLC = tested on: A549 NSCLC
ACHN renal = tested on: ACHN renal
BT-549 breast = tested on: BT-549 breast
CAKI-1 renal = tested on: CAKI-1 renal
CCRF-CEM leukemia = tested on: CCRF-CEM leukemia
COLO 205 colon = tested on: COLO 205 colon
DU-145 prostate = tested on: DU-145 prostate
HCC-2998 colon = tested on: HCC-2998 colon
HCT-116 colon = tested on: HCT-116 colon
HCT-15 colon = tested on: HCT-15 colon
HL-60(TB) leukemia = tested on: HL-60(TB) leukemia
HOP-62 NSCLC = tested on: HOP-62 NSCLC
HOP-92 NSCLC = tested on: HOP-92 NSCLC
HT29 colon = tested on: HT29 colon
IGROV1 ovarian = tested on: IGROV1 ovarian
K-562 leukemia = tested on: K-562 leukemia
KM12 colon = tested on: KM12 colon
LOX IMVI melanoma = tested on: LOX IMVI melanoma
M14 melanoma = tested on: M14 melanoma
MALME-3M melanoma = tested on: MALME-3M melanoma
MCF7 breast = tested on: MCF7 breast
MDA-MB-231 breast = tested on: MDA-MB-231 breast
MDA-MB-435 melanoma = tested on: MDA-MB-435 melanoma
MDA-MB-468 breast = tested on: MDA-MB-468 breast
MOLT-4 leukemia = tested on: MOLT-4 leukemia
NCI-H226 lung = tested on: NCI-H226 lung
NCI-H23 lung = tested on: NCI-H23 lung
NCI-H322M lung = tested on: NCI-H322M lung
NCI-H460 NSCLC = tested on: NCI-H460 NSCLC
NCI-H522 lung = tested on: NCI-H522 lung
NCI/ADR-RES ovarian = tested on: NCI/ADR-RES ovarian
OVCAR-3 ovarian = tested on: OVCAR-3 ovarian
OVCAR-4 ovarian = tested on: OVCAR-4 ovarian
OVCAR-5 ovarian = tested on: OVCAR-5 ovarian
OVCAR-8 ovarian = tested on: OVCAR-8 ovarian
PC-3 prostate = tested on: PC-3 prostate
RPMI-8226 leukemia = tested on: RPMI-8226 leukemia
RXF 393 renal = tested on: RXF 393 renal
SF-268 CNS = tested on: SF-268 CNS
SF-295 CNS = tested on: SF-295 CNS
SF-539 CNS = tested on: SF-539 CNS
SK-MEL-2 melanoma = tested on: SK-MEL-2 melanoma
SK-MEL-28 melanoma = tested on: SK-MEL-28 melanoma
SK-MEL-5 melanoma = tested on: SK-MEL-5 melanoma
SK-OV-3 ovarian = tested on: SK-OV-3 ovarian
SN12C renal = tested on: SN12C renal
SNB-19 CNS = tested on: SNB-19 CNS
SR leukemia = tested on: SR leukemia
SW-620 colon = tested on: SW-620 colon
T-47D breast = tested on: T-47D breast
TK-10 renal = tested on: TK-10 renal
U251 glioblastoma = tested on: U251 glioblastoma
UACC-257 melanoma = tested on: UACC-257 melanoma
UACC-62 melanoma = tested on: UACC-62 melanoma
UO-31 renal = tested on: UO-31 renal

`O=C(NS(=O)(=O)c1ccc(NC[C@H]2COCCO2)c([N+](=O)[O-])c1)c1ccc(N2CCN(CC3=C(c4ccc(Cl)cc4)CC4(CCC4)CC3)CC2)cc1Oc1cnc2[nH]ccc2c1` gave a GI50 ([…]-0 renal) of 2.41 µM, a TGI (786-0 renal) of 6.75 µM and a GI50 (A498 renal) of 1.86 µM. The TGI (A498 renal) was 5.09 µM, the GI50 (A549 NSCLC) was 2.34 µM and the TGI (A549 NSCLC) was 7.54 µM. It also gave a GI50 (ACHN renal) of 2.37 µM, a TGI (ACHN renal) of 6.63 µM and a GI50 (BT-549 breast) of 2.63 µM. For the same compound, the TGI (BT-549 breast) was 5.74 µM, the GI50 (CAKI-1 renal) was 2.17 µM and the TGI (CAKI-1 renal) was 5.11 µM. The GI50 (CCRF-CEM leukemia) was 1.34 µM, the TGI (CCRF-CEM leukemia) was 2.64 µM and the GI50 (COLO 205 colon) was 2.26 µM. It also gave a TGI (COLO 205 colon) of 4.27 µM, a GI50 (DU-145 prostate) of 2.82 µM and a TGI (DU-145 prostate) of 7.77 µM. It also gave a GI50 (HCC-2998 colon) of 1.81 µM, a TGI (HCC-2998 colon) of 3.37 µM and a GI50 (HCT-116 colon) of 2.3 µM. For the same compound, the TGI (HCT-116 colon) was 5.47 µM, the GI50 (HCT-15 colon) was 2.02 µM and the TGI (HCT-15 colon) was 4.07 µM. The GI50 (HL-60(TB) leukemia) was 0.0239 µM, the TGI (HL-60(TB) leukemia) was 1.24 µM and the GI50 (HOP-62 NSCLC) was 2.24 µM. It also gave a TGI (HOP-62 NSCLC) of 5.19 µM, a GI50 (HOP-92 NSCLC) of 1.56 µM and a TGI (HOP-92 NSCLC) of 3.1 µM. For the same compound, the GI50 (HT29 colon) was 2.32 µM, the TGI (HT29 colon) was 5.17 µM and the GI50 (IGROV1 ovarian) was 1.84 µM. It also gave a TGI (IGROV1 ovarian) of 4.31 µM, a GI50 (K-562 leukemia) of 3.32 µM and a TGI (K-562 leukemia) of 11.1 µM. It also gave a GI50 (KM12 colon) of 2.51 µM, a TGI (KM12 colon) of 6.15 µM and a GI50 (LOX IMVI melanoma) of 2.8 µM. It also gave a TGI (LOX IMVI melanoma) of 5.3 µM, a GI50 (M14 melanoma) of 2.1 µM and a TGI (M14 melanoma) of 4.14 µM. The GI50 (MALME-3M melanoma) was 2.28 µM, the TGI (MALME-3M melanoma) was 4.37 µM and the GI50 (MCF7 breast) was 2.65 µM. It also gave a TGI (MCF7 breast) of 8.8 µM, a GI50 (MDA-MB-231 breast) of 2.06 µM and a TGI (MDA-MB-231 breast) of 4.32 µM. It also gave a GI50 (MDA-MB-435 melanoma) of 2.38 µM, a TGI (MDA-MB-435 melanoma) of 5.03 µM and a GI50 (MDA-MB-468 breast) of 1.83 µM. For the same compound, the TGI (MDA-MB-468 breast) was 3.86 µM, the GI50 (MOLT-4 leukemia) was 0.814 µM and the TGI (MOLT-4 leukemia) was 2.08 µM. For the same compound, the GI50 (NCI-H226 lung) was 1.98 µM, the TGI (NCI-H226 lung) was 4.2 µM and the GI50 (NCI-H23 lung) was 1.89 µM. For the same compound, the TGI (NCI-H23 lung) was 4.05 µM, the GI50 (NCI-H322M lung) was 2.79 µM and the TGI (NCI-H322M lung) was 6.65 µM. It also gave a GI50 (NCI-H460 NSCLC) of 1.65 µM, a TGI (NCI-H460 NSCLC) of 3.98 µM and a GI50 (NCI-H522 lung) of 3 µM. For the same compound, the TGI (NCI-H522 lung) was 7.32 µM, the GI50 (NCI/ADR-RES ovarian) was 4.66 µM and the TGI (NCI/ADR-RES ovarian) was 16.7 µM. It also gave a GI50 (OVCAR-3 ovarian) of 2 µM, a TGI (OVCAR-3 ovarian) of 3.91 µM and a GI50 (OVCAR-4 ovarian) of 2.64 µM. It also gave a TGI (OVCAR-4 ovarian) of 6.47 µM, a GI50 (OVCAR-5 ovarian) of 2.15 µM and a TGI (OVCAR-5 ovarian) of 4.28 µM. It also gave a GI50 (OVCAR-8 ovarian) of 2.99 µM, a TGI (OVCAR-8 ovarian) of 9.88 µM and a GI50 (PC-3 prostate) of 2.12 µM. It also gave a TGI (PC-3 prostate) of 5.15 µM, a GI50 (RPMI-8226 leukemia) of 1.02 µM and a TGI (RPMI-8226 leukemia) of 2.18 µM. It also gave a GI50 (RXF 393 renal) of 1.34 µM, a TGI (RXF 393 renal) of 2.94 µM and a GI50 (SF-268 CNS) of 3.32 µM. The TGI (SF-268 CNS) was 8.91 µM, the GI50 (SF-295 CNS) was 1.39 µM and the TGI (SF-295 CNS) was 3.24 µM. It also gave a GI50 (SF-539 CNS) of 1.97 µM, a TGI (SF-539 CNS) of 4.22 µM and a GI50 (SK-MEL-2 melanoma) of 1.99 µM. The TGI (SK-MEL-2 melanoma) was 3.69 µM, the GI50 (SK-MEL-28 melanoma) was 2.53 µM and the TGI (SK-MEL-28 melanoma) was 5.49 µM. The GI50 (SK-MEL-5 melanoma) was 1.81 µM, the TGI (SK-MEL-5 melanoma) was 3.33 µM and the GI50 (SK-OV-3 ovarian) was 2.91 µM. The TGI (SK-OV-3 ovarian) was 7.58 µM, the GI50 (SN12C renal) was 2.52 µM and the TGI (SN12C renal) was 7.27 µM. It also gave a GI50 (SNB-19 CNS) of 3.97 µM, a TGI (SNB-19 CNS) of 14.7 µM and a GI50 (SR leukemia) of 1.13 µM. The TGI (SR leukemia) was 2.35 µM, the GI50 (SW-620 colon) was 3.96 µM and the TGI (SW-620 colon) was 12.9 µM. It also gave a GI50 (T-47D breast) of 2.92 µM, a TGI (T-47D breast) of 9.74 µM and a GI50 (TK-10 renal) of 2.69 µM. The TGI (TK-10 renal) was 8.48 µM, the GI50 (U251 glioblastoma) was 2.34 µM and the TGI (U251 glioblastoma) was 5.35 µM. The GI50 (UACC-257 melanoma) was 2.17 µM, the TGI (UACC-257 melanoma) was 4.31 µM and the GI50 (UACC-62 melanoma) was 1.96 µM. It also gave a TGI (UACC-62 melanoma) of 3.78 µM, a GI50 (UO-31 renal) of 2.1 µM and a TGI (UO-31 renal) of 4.75 µM.
